Assay results as given in patent US20220251158A1, “INTERMEDIATE FILAMENT-DERIVED PEPTIDES AND THEIR USES” (UNIVERSITAT DE LLEIDA, priority 2019, published 2022).

System: different populations of leukocytes
Experiment: Annexin V expression in leukocytes with 9 amino acid core peptides
Format: cell-based
Conditions: 9 amino acid peptide added directly to cell culture
Method: For cell death and apoptosis analysis, 400.000 of primary cells or 100.000 of cell line cells were incubated in 96-well plates in 200 μL of complete culture medium for 24 h at 37° C. and 5% CO2 in the absence or presence of 55 μM of different peptides. After 1 hour, 24 hours or 48 hours, apoptosis was measured by CFBlue Annexin V Apoptosis Detection Kit with PI (ANXVKCFB-100T, Immunostep), following kit protocol. For cleaved caspasa-3 intracellular staining, mononuclear cells were permeabilised following the manufacturer's instructions of the FoxP3 Staining Buffer Set (00-5523-00, eBioscience) and the cleaved caspasa-3-Pacific Blue (8788S, Cell Signalling) was used for staining. Cell suspensions were analysed by flow cytometry using FACS CANTO II instrumentation (BD, Biosciences, San Jose, Calif.) and Flowjo (version 8.7) software.

| Sequence | induction of the expression of annexin V |
| --- | --- |
| VKMALDIEI (Variant of core sequence - Per9) | not to be positive |
| VKMALDVEI (Variant of core sequence - Des9) | not to be positive |
| VKLALDIEI (Variant of core sequence - GFAP9) | not to be positive |
